Measured values taken from patent US20130079271A1, “REVERSED BIARYL SPIROAMINOOXAZOLINE ANALOGUES AS ALPHA2C ADRENERGIC RECEPTOR MODULATORS” (priority 2009, published 2013).

Molecular target: T1, α2C receptor (Homo sapiens, UniProt P18825)
T1 sequence (P18825 1-462): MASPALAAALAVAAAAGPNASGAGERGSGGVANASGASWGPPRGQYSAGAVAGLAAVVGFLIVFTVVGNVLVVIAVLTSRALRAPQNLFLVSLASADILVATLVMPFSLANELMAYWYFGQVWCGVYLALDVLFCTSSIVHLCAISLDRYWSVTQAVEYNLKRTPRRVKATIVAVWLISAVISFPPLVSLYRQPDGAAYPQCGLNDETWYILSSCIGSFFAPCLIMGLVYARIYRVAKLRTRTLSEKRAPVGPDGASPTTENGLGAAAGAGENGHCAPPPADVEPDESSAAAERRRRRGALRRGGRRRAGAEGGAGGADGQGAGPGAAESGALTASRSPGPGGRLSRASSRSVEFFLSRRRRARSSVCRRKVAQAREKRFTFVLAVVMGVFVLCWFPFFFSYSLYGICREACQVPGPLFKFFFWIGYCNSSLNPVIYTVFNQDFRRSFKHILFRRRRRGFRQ
Assay: Efficacy agonist activity (Emax, GTPγS assay) at α2C
Type: biochemical
Conditions: by definition: efficacy at α2C ≧30% Emax (GTPγS assay); functionally selective if also efficacy at α2A ≦35% Emax
Procedure: Efficacy agonist activity values (Emax, GTPγS assay) for α2A and α2C were determined by following the general procedure detailed by Umland et. al (“Receptor reserve analysis of the human α2c-adrenoceptor using [^35S]GTPγS and cAMP functional assays” European Journal of Pharmacology 2001, 411, 211-221). For the purposes of the present invention, a compound is defined to be a specific or at least functionally selective agonist of the α2C receptor subtype if the compound's efficacy at the α2C receptor is ≧30% Emax (GTPγS assay) and its efficacy at the α2A receptor is ≦35% Emax (GTPγS assay). Additionally, for the purposes of this invention, a compound is defined to be an antagonist of the α2C receptor subtype if the compound's efficacy at the α2C receptor is <30% Emax (GTPγS assay) and the Ki at the α2C receptor subtype was <500 nM, preferentially <200 nM, and most preferentially <20 nM.

Row | Structure (SMILES) | evaluated to be active or functionally selective agonists of the α2C receptor subtype
1 | CN1OC2(CCc3ccc(-c4cncnc4)cc3C2)N=C1N (racemic) [(±)-5F] | active or functionally selective agonists
2 | NC1=NCC2(CCc3c(cccc3-c3cncc(F)c3)C2)O1 (racemic) [(±)-108] | active or functionally selective agonists
3 | NC1=NCC2(CCc3c(cccc3-c3cc(F)cc(F)c3)C2)O1 (racemic) [(±)-104] | active or functionally selective agonists
4 | NC1=NC[C@]2(CCc3c(cccc3-c3cncnc3)C2)O1 [1f] | active or functionally selective agonists
5 | CN1OC2(CCc3c(cccc3-c3cncnc3)C2)N=C1N (racemic) [(±)-5] | active or functionally selective agonists
6 | NC1=NC[C@]2(CCc3c(cccc3-c3cncc(F)c3)C2)O1 (racemic) [compound 113] | active or functionally selective agonists
7 | NC1=NCC2(CCc3c(cccc3-c3cncnc3)C2)O1 (racemic) [(±)-1] | active or functionally selective agonists
8 | CN1OC2(CCc3cccc(-c4cncnc4)c3C2)N=C1N (racemic) [(±)-5B] | active or functionally selective agonists
9 | NC1=NC[C@]2(CCc3c(cccc3-c3cc(F)cc(F)c3)C2)O1 [compound 112] | active or functionally selective agonists
